Where “and” joins values, the source holds several entries; their conditions need not be identical. Identical values can stand only once.
Key:
Ehrlich carcinoma cells = test: Antitumor effect in Ehrlich carcinoma-bearing mice (tumor weight ratio to control); assay type: in vivo, ddY strain mice; settings: i.p. once daily for 6 days, tumor weight on day 12 vs saline control
Protocol: Eight ddY strain mice (male, 5 weeks old, weight: about 25 g) per group were used, and 5×10^6 Ehrlich carcinoma cells were inoculated subcutaneously into the inguinal region of the mice. The test compound dissolved or suspended in a physiological saline solution was intraperitoneally administered to the mice once daily for 6 days from the day after the inoculation. As the control compound, FudR was used. To the control group was administered only the physiological saline solution.

thymidylate synthetase = settings: in cells, FduMP formed from FudR; cited from earlier work
cells = settings: FduMP per se; cited from earlier work
[1] = cited from earlier work
[2] = in vitro, compared with 5-Fu; cited from earlier work
nucleoside phosphorylase = settings: cited from earlier work
[3] = in vivo; cited from earlier work
[4] = Acute toxicity test (single intraperitoneal administration, LD50); settings: mouse, in vivo, ip; single i.p. administration, male ddY mice, death judged on 14th day
Protocol: To ddY mice (male, 5 weeks old, 5 mice per group) was intraperitoneally administered the test compound dissolved or suspended in a physiological saline solution only one time. On the 14th day after the administration, the death of mouse was judged, and the LD50 value was calculated.

Compound	Effect (T/C (%)) (Ehrlich carcinoma cells; 3 μmole/kg/day) [%]	Effect (T/C (%)) (Ehrlich carcinoma cells; 10 μmole/kg/day)	Effect (T/C (%)) (Ehrlich carcinoma cells; 1 μmole/kg/day) [%]	LD50 at 336 h [4] [mg/kg]	also measured
5-Fluoro-2'-deoxy-3'-O-palmitoyl-β-uridine-5'-[2-(4-dimethylaminopyridinio)ethyl]phosphate.hydrate [Test compound 4]	22	19%			
5-Fluoro-2'-deoxy-5'-O-hexanoyl-β-uridine-3'-(2-trimethylammonioethyl)phosphate.hydrate [Test compound 9]	38	21%			
5-Fluoro-2'-deoxy-5'-O-palmitoyl-β-uridine-3'-[2-(1-pyrazolyl)ethyl]phosphate.hydrate [Example 7]	27		40		
5-Fluoro-2'-deoxy-5'-O-palmitoyl-β-uridine-3'-[2-(2-hydroxyethyldimethylammonio)ethyl]phosphate.hydrate [Test compound 11]	17		38		
5-Fluoro-2'-deoxy-5'-O-palmitoyl-β-uridine-3'-[2-(2H-1,2,4-triazol-1-io)ethyl]phosphate.hydrate [Test compound 10]	66	34%			
5-Fluoro-2'-deoxy-5'-O-palmitoyl-β-uridine-3'-{2-[4-(4-methyl)morpholinio]ethyl}phosphate.hydrate [Test compound 12]	10		24		
O=c1[nH]c(=O)n([C@H]2C[C@H](O)[C@@H](COP(=O)(O)O)O2)cc1F [FduMP, 5-fluoro-2'-deoxyuridine-5'-monophosphate]					thymidylate synthetase inhibition (thymidylate synthetase): inhibits thymidylate synthetase; uptake by cells (cells): not taken up by cells
O=c1[nH]c(=O)n([C@H]2C[C@H](O)[C@@H](CO)O2)cc1F [FudR, 5-fluoro-2'-deoxy-β-uridine]	87	67% and 77%			clinical toxicity [1]: high toxicity; clinical efficacy ([1]; compared with 5-Fu): only equivalent in efficacy to 5-Fu; cytocidal activity [2]: stronger cytocidal activity than 5-fluorouracil; cleavage by nucleoside phosphorylase (nucleoside phosphorylase): easily cleaved by nucleoside phosphorylase; Effect (T/C (%)) (Ehrlich carcinoma cells; 30 μmole/kg/day): 42%; excretion [3]: rapidly excreted in vivo; metabolism [3]: metabolized to α-fluoro-β-alanine through 5-Fu; persistency [3]: poor in persistency
CCCCCCCCCCCCCCCCCC(=O)O[C@H]1C[C@H](n2cc(F)c(=O)[nH]c2=O)O[C@@H]1COP(=O)([O-])OCC[N+](C)(C)C [Test compound 2]				188	
CCCCCCCC/C=C\CCCCCCCC(=O)O[C@H]1C[C@H](n2cc(F)c(=O)[nH]c2=O)O[C@@H]1COP(=O)([O-])OCC[N+](C)(C)C [Test compound 3]				200	
CCCCCCCCCCCCCCCC(=O)OC[C@H]1O[C@@H](n2cc(F)c(=O)[nH]c2=O)C[C@@H]1OP(=O)([O-])OCC[N+](C)(C)C [Test compound 5]				> 200	
CCCCCCCCCCCCCCCCCC(=O)OC[C@H]1O[C@@H](n2cc(F)c(=O)[nH]c2=O)C[C@@H]1OP(=O)([O-])OCC[N+](C)(C)C [Test compound 6]				200	
CCCCCCCCCCCC(=O)OC[C@H]1O[C@@H](n2cc(F)c(=O)[nH]c2=O)C[C@@H]1OP(=O)([O-])OCC[N+](C)(C)C [Test compound 7]				> 300	
CCCCCCCCCCCCCCCC(=O)O[C@H]1C[C@H](n2cc(F)c(=O)[nH]c2=O)O[C@@H]1COP(=O)([O-])OCC[N+](C)(C)C [compound 1]	47	19%		208	Effect (T/C (%)) (Ehrlich carcinoma cells; 30 μmole/kg/day): 15%
CCCCCCCCC=CCCCCCCCC(=O)OC[C@H]1O[C@@H](n2cc(F)c(=O)[nH]c2=O)C[C@@H]1OP(=O)([O-])OCC[N+](C)(C)C [compound 8]	28		50	300	
CCCCCC(=O)OC[C@H]1O[C@@H](n2cc(F)c(=O)[nH]c2=O)C[C@@H]1OP(=O)([O-])OCC[N+](C)(C)C [compound 9]	32		50	500	
CCCCCCCCCCCCCCCC(=O)OC[C@H]1O[C@@H](n2cc(F)c(=O)[nH]c2=O)C[C@@H]1OP(=O)([O-])OCC[n+]1cnc[nH]1 [compound 10]	36	18%	42		
CCCCCCCCCCCCCCCC(=O)OC[C@H]1O[C@@H](n2cc(F)c(=O)[nH]c2=O)C[C@@H]1OP(=O)([O-])OCC[N+](C)(C)CCO [compound 11]	44	22%	41		
CCCCCCCCCCCCCCCC(=O)OC[C@H]1O[C@@H](n2cc(F)c(=O)[nH]c2=O)C[C@@H]1OP(=O)([O-])OCC[N+]1(C)CCOCC1 [compound 12]	28		46		
